{"source": "paper PMC6509210", "about": "“ALK2 inhibitors display beneficial effects in preclinical models of ACVR1 mutant diffuse intrinsic pontine glioma” (Communications Biology, 2019)", "test_system": "phospho-SMAD1/5/8 and ID1 in HSJD-DIPG-007 xenograft tumours", "assay": "Pharmacodynamic biomarkers by Western blot in orthotopic HSJD-DIPG-007 xenograft tumours", "assay_type": "in vivo, NOD.SCID mice", "conditions": "daily oral administration, end of 28 days", "protocol": "Fig. 5 In vivo pharmacokinetics/pharmacodynamics of LDN-193189 (top) and LDN-214117 (bottom). a, e Tolerability in NOD.SCID mice exposed to daily oral treatment with inhibitor over 14 days, as assessed by body weight relative to day 0. Mean and standard deviation of 3 mice per group are plotted. b, f Blood levels of compounds up to 8 h post-exposure to a single oral dose of drug at day 14. Mean and standard deviation of 3 mice per group are plotted. c, g Barplot of compound concentrations in blood (red), plasma (yellow) and brain tissue (blue) 2 h post-exposure to a single oral dose of drug at day 14. […]\nFor growth factor starvation, cells were washed twice with PBS and then incubated for 1 h in stem cell medium without growth factors. […] Following quantification using Pierce BCA Protein Assay Kit (Thermo Fisher), equal amounts of cell extracts were loaded for Western blot analysis. […] Signal was detected with ECL Prime western blotting detection agent (Amersham Biosciences), visualised using Hyperfilm ECL (Amersham Biosciences) and analysed using an X-ray film processor in accordance with standard protocols. […]"}
{"molecule": "c1ccc2c(-c3cnn4cc(-c5ccc(N6CCNCC6)cc5)cnc34)ccnc2c1", "note": "[LDN-193189]", "values": [{"measurement": "reduction in pharmacodynamic biomarkers phospho-SMAD1/5/8 and ID1 in tumours", "value": "near-ablation of phospho-SMAD1/5/8 and ID1"}]}
